# Patent publication US10000452B1, “Quinolone-based compounds, formulations, and uses thereof” (University of South Florida, priority 2016, dated 2018)
# Assays:
# [1] = system: malarial strain W2 (pyrimethamine and chloroquine-resistant); test: in vitro antimalarial activity against multidrug resistant strain W2; format: cell-based, P. falciparum; conditions: for EC50: Plasmodium falciparum, read-out: EC50 W2 (nM); for EC50 W2 (nM): blood stage in vitro, strain W2
# [2] = system: malarial strain TM90-C2B (mefloquine, chloroquine, atovaquone, and pyrimethamine-resistant); test: microbe, parasite or virus in culture; format: cell-based, P. falciparum; conditions: for EC50: Plasmodium falciparum, TM90, read-out: EC50 TM90-C2B (nM); for RI: RI = EC50 TM90-C2B/EC50 W2; for EC50 TM90-C2B (nM): blood stage in vitro, atovaquone-resistant strain TM90-C2B
# Excerpt: Ideally, the RI of a compound should lie between 0.3 and 3.0 in order to avoid rapidly inducing resistance in the parasite. […]
# [3] = aqueous solubility (LC/MS- or HPLC-based assay); format: physicochemical; conditions: aqueous solution (buffer not named), aqueous buffer, Example 2, at any given pH; read-out: solubility
# Excerpt: Furthermore, to profile the properties of the piperazinyl-4(1H)-quinolones, and to identify potential limitations, aqueous solubility and lipophilicity log D were experimentally determined via LC/MS-based assays as described by the Manetsch laboratory previously^8,10,31,32 (Tables 9-12). Encouragingly, the piperazinyl-4(1H)-quinolones were much more soluble than the previously described phenoxyethoxy-4(1H)-quinolone analogues.^19 As expected, the solubility of all compounds was affected by pH, with better solubility under more acidic conditions.
# In parallel to testing the compounds for in vitro antimalarial activity, a limited structure-property relationship (SPR) study focusing on log D and aqueous solubility was conducted to assess potential physiochemical liabilities (FIG. 22). […] For these reasons, physicochemical properties were not strongly considered as selection criteria for in vivo efficacy studies.
Compound,EC50 [1],EC50 W2 (nM) [1],other results
"CCCCc1cc2c(=O)c(C(=O)NC)c[nH]c2cc1OCCOc1ccccc1 [Compound 13a, 6-Butyl-N-methyl-4-oxo-7-(2-phenoxyethoxy)-1,4-dihydroquinoline-3-carboxamide]",13.3 nM,,EC50 [2]: 3980 nM
"COC(=O)c1c[nH]c2cc(Cl)ccc2c1=O [Compound 6l, Methyl 7-Chloro-4-oxo-1,4-dihydroquinoline-3-carboxylate]",,devoid of antimalarial activity,
"COC(=O)c1c[nH]c2ccc(-c3ccccc3)cc2c1=O [Compound 6u, Methyl 4-Oxo-6-phenyl-1,4-dihydroquinoline-3-carboxylate]",,devoid of activity,
"CCCCc1cc2c(=O)c(Br)c[nH]c2cc1OCCOc1ccccc1 [Compound 16d, 3-Bromo-6-butyl-7-(2-phenoxyethoxy)quinolin-4(1H)-one]",4.64 nM,,EC50 [2]: 48.7 nM
"CCCCc1cc2c(=O)c(C(C)=O)c[nH]c2cc1OCCOc1ccccc1 [Compound 6ag, 3-Acetyl-6-butyl-7-(2-phenoxyethoxy)quinolin-4(1H)-one]",9.67 nM,,
"CCCCc1cc2c(=O)c(Cl)c(C)[nH]c2cc1OCCOc1ccccc1 [Compound 16e, 6-Butyl-3-chloro-2-methyl-7-(2-phenoxyethoxy)quinolin-4(1H)-one]",6.92 nM,,EC50 [2]: 67.7 nM; RI [2]: 9.79
"CCCCc1cc2c(=O)c(I)c[nH]c2cc1OCCOc1ccccc1 [Compound 16b, 6-Butyl-3-iodo-7-(2-phenoxyethoxy)quinolin-4(1H)-one]",1.23 nM,,EC50 [2]: 6.04 nM; RI [2]: 4.91
"CCCCc1cc2c(=O)c(C#N)c[nH]c2cc1OCCOc1ccccc1 [Compound 6ad, 6-Butyl-4-oxo-7-(2-phenoxyethoxy)-1,4-dihydroquinoline-3-carbonitrile]",,high double-digit nM range,
"COC(=O)c1c[nH]c2ccc(OCCc3ccccc3)cc2c1=O [Compound 6f, Methyl 4-Oxo-6-phenethoxy-1,4-dihydroquinoline-3-carboxylate]",,double-digit nM,
"COC(=O)c1c[nH]c2cc(-c3ccccc3)ccc2c1=O [Compound 6m, Methyl 4-Oxo-7-phenyl-1,4-dihydroquinoline-3-carboxylate]",,devoid of antimalarial activity,
"Methyl 6-methyl-4-oxo-7-(4-phenylpiperazin-1-yl)-1,4-dihydroquinoline-3-carboxylate [Compound 8c]",,retained respectable potency,EC50 TM90-C2B (nM) [2]: devoid of any activity
"CCCCc1cc2c(=O)c(C(=O)NCCO)c[nH]c2cc1OCCOc1ccccc1 [Compound 13d, 6-Butyl-N-(2-hydroxyethyl)-4-oxo-7-(2-phenoxyethoxy)-1,4-dihydroquinoline-3-carboxamide]",,,solubility [3]: > 20 µM
"COC(=O)c1c[nH]c2ccccc2c1=O [Compound 6d, Methyl 4-Oxo-1,4-dihydroquinoline-3-carboxylate]",,retained respectable potency,EC50 TM90-C2B (nM) [2]: devoid of any activity
"COC(=O)c1c[nH]c2cc(OCCOc3ccccc3)c(OC)cc2c1=O [Compound 6aa, Methyl 6-Methoxy-4-oxo-7-(2-phenoxyethoxy)-1,4-dihydroquinoline-3-carboxylate]",,,RI [2]: 1.60
"Methyl 4-oxo-7-(4-phenylpiperazin-1-yl)-1,4-dihydroquinoline-3-carboxylate [Compound 8a]",,inhibition against W2 was lost,RI [2]: ~1
"COC(=O)c1c[nH]c2cc(F)ccc2c1=O [Compound 6n, Methyl 7-Fluoro-4-oxo-1,4-dihydroquinoline-3-carboxylate]",26.2 nM,,EC50 [2]: 395 nM
"CCCCc1cc2c(=O)c(C(=O)NC(C)C)c[nH]c2cc1OCCOc1ccccc1 [Compound 13e, 6-Butyl-N-isopropyl-4-oxo-7-(2-phenoxyethoxy)-1,4-dihydroquinoline-3-carboxamide]",,completely inactive,
